The experiment has as its target T1, human PD-1 / PD-L1-Ig binding on Jurkat cell line over-expressing human PD-1 (Jurkat-PD-1) (Homo sapiens, UniProt Q15116).
T1 construct: expressed in transfected cells; host or cells: Jurkat
Nature of the experiment: Jurkat-PD-1 Cell Binding High-Content Screening Assay (CBA). Format: cell-based. As to conditions: Jurkat-PD-1 cells, PE-labeled PD-L1-Ig 20 nM final; read-out: Jurkat HPD1_PDL1 IC50. Put shortly: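 Jurkat cells over-expressing human PD-1, in DMEM/10% FCS, pre-incubated with compound 2 h at 37° C. PE-labeled human PD-L1-Ig (20 nM final) added for 1 h; cells fixed in paraformaldehyde with Hoechst 33342 nuclear stain, washed, and bound fluorescence quantified by high-content imaging.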

Molecules are shown by their SMILES. Where a SMILES comes first, the peptide text is derived from it. Bridges are numbered along the chain shown (N, C = ends). [ ]: non-standard residue; d: D form. The star is where a group is joined. ξ: configuration not given here. Phe(4-COOH) = N[C@@H](Cc1ccc(C(=O)O)cc1)C(=O)O; Trp(7-Me) = Cc1cccc2c(C[C@H](N)C(=O)O)c[nH]c12; Bip = N[C@@H](Cc1ccc(-c2ccccc2)cc1)C(=O)O; Phe(3-CN) = N#Cc1cccc(C[C@H](N)C(=O)O)c1; Phe(2-CN) = N#Cc1ccccc1C[C@H](N)C(=O)O; Phe(3-Me) = Cc1cccc(C[C@H](N)C(=O)O)c1; Val(3-OH) = CC(C)(O)[C@H](N)C(=O)O; 4Pal = N[C@@H](Cc1ccncc1)C(=O)O; Cha = N[C@@H](CC1CCCCC1)C(=O)O; Cit = NC(=O)NCCC[C@H](N)C(=O)O; Thr(3ξ) = CC(O)[C@H](N)C(=O)O; dDab = NCC[C@@H](N)C(=O)O; Carboxymethyl = O=C(O)C*; Orn = NCCC[C@H](N)C(=O)O; Pra = C#CC[C@H](N)C(=O)O; Dab = NCC[C@H](N)C(=O)O; Dap = NC[C@H](N)C(=O)O; ξPra = C#CCC(N)C(=O)O; NHCH2CH2OMe = COCCN*

T1 sequence (Q15116 25-288): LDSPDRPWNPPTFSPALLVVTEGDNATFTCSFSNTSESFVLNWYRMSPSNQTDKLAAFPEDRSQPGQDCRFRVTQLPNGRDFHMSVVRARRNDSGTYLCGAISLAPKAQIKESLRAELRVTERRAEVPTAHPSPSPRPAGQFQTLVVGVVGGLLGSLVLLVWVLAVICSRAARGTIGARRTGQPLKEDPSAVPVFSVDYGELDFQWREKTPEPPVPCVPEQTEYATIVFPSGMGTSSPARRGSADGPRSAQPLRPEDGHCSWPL

On to `CC(C)C[C@@H]1NC(=O)[C@H](Cc2c[nH]c3ccccc23)NC(=O)[C@H](CC(=O)O)NC(=O)[C@H](Cc2ccc(O)cc2)NC(=O)[C@H](Cc2ccccc2)NC(=O)CSC[C@@H](C(=O)NCC(N)=O)NC(=O)[C@H]([C@@H](C)O)NC(=O)[C@H](C(C)C)NC(=O)[C@H](CC(C)C)NC(=O)[C@H](CCN)NC(=O)[C@@H](C)NC(=O)[C@H](CN)NC(=O)[C@H](C(C)C)NC(=O)[C@H](Cc2ccc(-c3ccccc3)cc2)NC1=O` [Compound 1078] ({CH2CO}-FYDWL[Bip]V[Dap][dA][Dab]LVTCG-NH2; thioether N-14), for which the IC50 came to 40.2 nM.

As to `C#CC[C@H](NC(=O)[C@H](C)NC(=O)[C@@H]1CSCC(=O)N[C@@H](CN)C(=O)N[C@@H](Cc2ccc(OCC(=O)O)cc2)C(=O)N[C@@H](CC(=O)O)C(=O)N[C@@H](Cc2cccc(C)c2)C(=O)N[C@@H](C(C)C)C(=O)N[C@@H](Cc2ccc(-c3ccccc3)cc2)C(=O)N[C@@H](CCCNC(N)=O)C(=O)N[C@@H](CCCN)C(=O)N[C@H](CC(C)C)C(=O)N[C@@H](CCN)C(=O)N[C@@H](CC2CCCCC2)C(=O)N[C@@H](C(C)C)C(=O)N[C@@H]([C@@H](C)O)C(=O)N1)C(=O)O` [Compound 2259], the half-maximal inhibitory concentration (IC50) is 44.3 nM.

With `CCC(C)[C@@H]1NC(=O)[C@H](Cc2ccc(-c3ccccc3)cc2)NC(=O)[C@H](C(C)C)NC(=O)[C@H](Cc2cccc(C)c2)NC(=O)[C@H](CC(=O)O)NC(=O)[C@H](Cc2ccc(OCC(=O)O)cc2)NC(=O)[C@H](Cc2ccncc2)NC(=O)CSC[C@@H](C(=O)N[C@@H](C)C(N)=O)NC(=O)[C@H](CO)NC(=O)[C@H](C(C)C)NC(=O)[C@H](CC2CCCCC2)NC(=O)[C@H](CCN)NC(=O)[C@@H](CC(C)C)NC(=O)[C@H](CCCN)NC1=O` (some centres unmarked) [Compound 2535], the IC50 stood at 38 nM.

With `CC(C)C[C@@H]1NC(=O)[C@H](CCN)NC(=O)[C@@H](CC(C)C)NC(=O)[C@H](CN)NC(=O)[C@H](C(C)C)NC(=O)[C@H](Cc2ccc(-c3ccccc3)cc2)NC(=O)[C@H](C(C)C)NC(=O)[C@H](Cc2c[nH]c3ccccc23)NC(=O)[C@H](CC(=O)O)NC(=O)[C@H](Cc2ccc(O)cc2)NC(=O)[C@H](CC(N)=O)NC(=O)CSC[C@@H](C(=O)N[C@@H](C)C(N)=O)NC(=O)[C@H]([C@@H](C)O)NC(=O)[C@H](C(C)C)NC1=O` [Compound 1028] ({CH2CO}-NYDWV[Bip]V[Dap][dL][Dab]LVTCA-NH2; thioether N-14), the IC50 came out at 14.3 nM.

Turning to `CC(C)C[C@H]1NC(=O)[C@H](CCCN)NC(=O)[C@H](CCC(=O)O)NC(=O)[C@H](Cc2ccc(-c3ccccc3)cc2)NC(=O)[C@H](C(C)C)NC(=O)[C@H](Cc2c[nH]c3ccccc23)NC(=O)[C@H](CC(=O)O)NC(=O)[C@H](Cc2ccc(OCC(=O)O)cc2)NC(=O)[C@H](CN)NC(=O)CSC[C@@H](C(=O)N[C@@H](C)C(N)=O)NC(=O)[C@H]([C@@H](C)O)NC(=O)[C@H](C(C)C)NC(=O)[C@H](Cc2ccccc2C#N)NC(=O)[C@H](CCN)NC1=O` [Compound 1487] ({CH2CO}-[Dap]Y(Carboxymethyl)DWV[Bip]E[Orn][dL][Dab][Phe(2-CN)]VTCA-NH2; thioether N-14), the IC50 is 268 nM.

Regarding `CC(C)C[C@H]1NC(=O)[C@H](CCCN)NC(=O)[C@H](CCC(=O)O)NC(=O)[C@H](Cc2ccc(-c3ccccc3)cc2)NC(=O)[C@H](C(C)C)NC(=O)[C@H](Cc2c[nH]c3ccccc23)NC(=O)[C@H](CC(=O)O)NC(=O)[C@H](Cc2ccc(OCC(=O)O)cc2)NC(=O)[C@H](CN)NC(=O)CSC[C@@H](C(=O)N[C@@H](C)C(N)=O)NC(=O)[C@H]([C@@H](C)O)NC(=O)[C@H](C(C)C)NC(=O)[C@H](Cc2cccc(C#N)c2)NC(=O)[C@H](CCN)NC1=O` [Compound 1507] ({CH2CO}-[Dap]Y(Carboxymethyl)DWV[Bip]E[Orn][dL][Dab][Phe(3-CN)]VTCA-NH2; thioether N-14), the IC50 was found to be 154 nM.

On to `Cc1cccc(C[C@@H]2NC(=O)[C@H](CC(=O)O)NC(=O)[C@H](Cc3ccc(OCC(=O)O)cc3)NC(=O)[C@H](CN)NC(=O)CSC[C@@H](C(=O)N[C@@H](CCN)C(N)=O)NC(=O)[C@@H](CCN)NC(=O)[C@H](C(C)C)NC(=O)[C@H](CC3CCCCC3)NC(=O)[C@H](CCN)NC(=O)[C@@H](CC(C)C)NC(=O)[C@H](CCCN)NC(=O)[C@H](Cc3ccc(O)cc3)NC(=O)[C@H](Cc3ccc(-c4ccccc4)cc3)NC(=O)[C@H](Cc3ccc(O)cc3)NC2=O)c1` [Compound 2045] ({CH2CO}-[Dap]Y(Carboxymethyl)D[Phe(3-Me)]Y[Bip]Y[Orn][dL][Dab][Cha]V[dDab]C[Dab]-NH2; thioether N-14), for which the IC50 is 10.5 nM.

As to `C#CC[C@H](NC(=O)[C@H](CCN)NC(=O)[C@@H]1CSCC(=O)N[C@@H](CN)C(=O)N[C@@H](Cc2ccc(C(=O)O)cc2)C(=O)N[C@@H](CC(=O)O)C(=O)N[C@@H](Cc2cccc(C)c2)C(=O)N[C@@H](Cc2ccc(C(=O)O)cc2)C(=O)N[C@@H](Cc2ccc(-c3ccccc3)cc2)C(=O)N[C@@H](Cc2ccc(C(=O)O)cc2)C(=O)N[C@@H](CCCN)C(=O)N[C@H](CC(C)C)C(=O)N[C@@H](CCN)C(=O)N[C@@H](CC2CCCCC2)C(=O)N[C@@H](C(C)(C)O)C(=O)N[C@@H](CO)C(=O)N1)C(N)=O` [Compound 1845] ({CH2CO}-[Dap][Phe(4-COOH)]D[Phe(3-Me)][Phe(4-COOH)][Bip][Phe(4-COOH)][Orn][dL][Dab][Cha][Val(3-OH)]SC[Dab][Pra]-NH2; thioether N-14), the IC50 was found to be 7.3 nM.

Take `CC(C)C[C@@H]1NC(=O)[C@H](CCN)NC(=O)[C@@H](CC(C)C)NC(=O)[C@H](CCCN)NC(=O)[C@H](CCCNC(N)=O)NC(=O)[C@H](Cc2ccc(-c3ccccc3)cc2)NC(=O)[C@H](C(C)C)NC(=O)[C@H](Cc2c[nH]c3ccccc23)NC(=O)[C@H](CC(=O)O)NC(=O)[C@H](Cc2ccncc2)NC(=O)[C@H](Cc2ccc(OCC(=O)O)cc2)NC(=O)CSC[C@@H](C(=O)N[C@@H](C)C(N)=O)NC(=O)[C@H]([C@@H](C)O)NC(=O)[C@H](C(C)C)NC1=O` [Compound 1323] ({CH2CO}-Y(Carboxymethyl)[4Pal]DWV[Bip][Cit][Orn][dL][Dab]LVTCA-NH2; thioether N-14): the IC50 turned out to be 29.4 nM.

Regarding `Cc1cccc(C[C@@H]2NC(=O)[C@H](CC(=O)O)NC(=O)[C@H](Cc3ccc(OCC(=O)O)cc3)NC(=O)[C@H](CN)NC(=O)CSC[C@@H](C(=O)N[C@@H](C)C(N)=O)NC(=O)[C@H]([C@@H](C)O)NC(=O)[C@H](C(C)C)NC(=O)[C@H](CC3CCCCC3)NC(=O)[C@H](CCN)NC(=O)[C@@H](CC(C)C)NC(=O)[C@H](CCCN)NC(=O)[C@H](CCC(=O)O)NC(=O)[C@H](Cc3ccc(-c4ccccc4)cc3)NC(=O)[C@H](C(C)C)NC2=O)c1` [Compound 1302], the IC50 is 6.1 nM.

Take `C#CCC(NC(=O)[C@H](CCN)NC(=O)[C@@H]1CSCC(=O)N[C@@H](Cc2ccncc2)C(=O)N[C@@H](Cc2ccc(OCC(=O)O)cc2)C(=O)N[C@@H](CC(=O)O)C(=O)N[C@@H](Cc2c[nH]c3ccccc23)C(=O)N[C@@H](C(C)C)C(=O)N[C@@H](Cc2ccc(-c3ccccc3)cc2)C(=O)N[C@@H]([C@@H](C)CC)C(=O)N[C@@H](CCCN)C(=O)N[C@H](CC(C)C)C(=O)N[C@@H](CCN)C(=O)N[C@@H](CC(C)C)C(=O)N[C@@H](C(C)C)C(=O)N[C@@H]([C@@H](C)O)C(=O)N1)C(N)=O` (stereo partly drawn) [Compound 1765] ({CH2CO}-[4Pal]Y(Carboxymethyl)DWV[Bip]I[Orn][dL][Dab]LVTC[Dab][ξPra]-NH2; thioether N-14): the IC50 is 21.4 nM.

For `Cc1cccc2c(C[C@@H]3NC(=O)[C@H](CC(=O)O)NC(=O)[C@H](Cc4ccc(OCC(=O)O)cc4)NC(=O)[C@H](CN)NC(=O)CSC[C@@H](C(=O)N[C@@H](CCN)C(N)=O)NC(=O)[C@H]([C@@H](C)O)NC(=O)[C@H](C(C)C)NC(=O)[C@H](CC4CCCCC4)NC(=O)[C@H](CCN)NC(=O)[C@@H](CC(C)C)NC(=O)[C@H](CCCN)NC(=O)[C@H](C(C)C)NC(=O)[C@H](Cc4ccc(-c5ccccc5)cc4)NC(=O)[C@H](C(C)C)NC3=O)c[nH]c12` [Compound 2018] ({CH2CO}-[Dap]Y(Carboxymethyl)D[Trp(7-Me)]V[Bip]V[Orn][dL][Dab][Cha]VTC[Dab]-NH2; thioether N-14), the IC50 was 335 nM.

Turning to `CC(C)C[C@H]1NC(=O)[C@H](CCCN)NC(=O)[C@H](C(C)C)NC(=O)[C@H](Cc2ccc(-c3ccccc3)cc2)NC(=O)[C@H](C(C)C)NC(=O)[C@H](Cc2c[nH]c3ccccc23)NC(=O)[C@H](CC(=O)O)NC(=O)[C@H](Cc2ccc(OCC(=O)O)cc2)NC(=O)[C@H](C(C)O)NC(=O)CSC[C@@H](C(=O)N[C@@H](CCN)C(N)=O)NC(=O)[C@H](C(C)O)NC(=O)[C@H](C(C)(C)O)NC(=O)[C@H](CC2CCCCC2)NC(=O)[C@H](CCN)NC1=O` (stereo partly drawn) [Compound 2631] ({CH2CO}-[Thr(3ξ)]Y(Carboxymethyl)DWV[Bip]V[Orn][dL][Dab][Cha][Val(3-OH)][Thr(3ξ)]C[Dab]-NH2; thioether N-14), the IC50 was 8.5 nM.

For `COCCNC(=O)[C@H](CCN)NC(=O)[C@@H]1CSCC(=O)N[C@@H](Cc2ccncc2)C(=O)N[C@@H](Cc2ccc(C(=O)O)cc2)C(=O)N[C@@H](CC(=O)O)C(=O)N[C@@H](Cc2cccc(C)c2)C(=O)N[C@@H](Cc2ccc(OCC(=O)O)cc2)C(=O)N[C@@H](Cc2ccc(-c3ccccc3)cc2)C(=O)N[C@@H](Cc2ccc(OCC(=O)O)cc2)C(=O)N[C@@H](CCCN)C(=O)N[C@H](CC(C)C)C(=O)N[C@@H](CCN)C(=O)N[C@@H](CC2CCCCC2)C(=O)N[C@@H](C(C)(C)O)C(=O)N[C@@H](CO)C(=O)N1` [Compound 2076] ({CH2CO}-[4Pal][Phe(4-COOH)]D[Phe(3-Me)]Y(Carboxymethyl)[Bip]Y(Carboxymethyl)[Orn][dL][Dab][Cha][Val(3-OH)]SC[Dab]-NHCH2CH2OMe; thioether N-14), the IC50 stood at 240 nM.

In general, IC50 refers to the midpoint of a concentration-inhibition curve.

The record behind these values is patent publication US20250163104A1, “MACROCYCLIC IMMUNOMODULATORS” (priority 2021, published 2025).
